# Measurements from patent US20040242870A1, “Antiviral methods and compounds” (priority 2000, published 2004).
# How the values were obtained:
# [1] = test system: HIV-1; experiment: HeLa CD4 LTR β-gal HIV-1 attachment assay; assay type: cell-based; settings: cells alone+compounds; at all times
# Protocol: The attachment assay was performed with the HeLa CD4 LTR , β-gal cells available from the AIDS Research and Reference Reagent Repository. […] HeLa CD4 LTR β-gal cells express cell surface CD4 and contain an LTR β-galactosidase reporter construct. Upon infection either the Tat protein incorporated into the virion or new Tat produced following virus integration and transcription trans-activates the LTR β-gal reporter, leading to expression of the β-galactosidase enzyme. HeLa CD4 LTR β-gal cells are routinely cultured with the required selection antibiotics and screened for mycoplasma contamination. Twenty-four h prior to initiation of the assay cells were trypsinized, counted and 1×10^4 cells placed in a 0.2 cm well in media without selection antibiotics. […] A known titer of virus was then added to the wells and the incubation continued for 1 h. At the end of the incubation the wells were washed 6 times with media and the culture continued for 48 h. At 48 h the wells were washed one time with PBS and β-galactosidase enzyme expression determined by chemiluminescence per manufacturers instructions (Tropix Gal-screen™, Tropix, Bedford, Mass.). Compound toxicity was monitored on sister plates using MTS dye reduction.
# [2] = test system: HIV-1; experiment: HeLa CD4 LTR β-gal/HL2/3 HIV-1 fusion assay; assay type: cell-based; settings: fusion assay
# Source text: This assay uses the HeLa CD4 LTR β-gal and HL2-3 cells available from the AIDS Research and Reference Reagent Repository. The HL2/3 are derived from HeLa cells and engineered to express HIV gp120 on their cell surface and Tat protein in their cytoplasma. Thus following gp 120/CD4/coreceptor-mediated fusion; cytoplasmic mixing results in the HL2/3 cell-derived Tat trans-activation of the β-galactosidase reporter. […] Twenty-four h prior to initiation of the assay cells were trypsinized, counted and 5×10^3 cells placed in a 0.2 cm well in media without selection antibiotics. To initiate the fusion assay HeLa CD4 LTR β-gal (5×10^3 cells per 0.2 cm well) were incubated with compound for 1 h at 37° C. HL2/3 cells (5×10^3) were added to the 0.2 cm well and the incubation continued for 48 h. At 48 h the wells were washed 1 time with PBS and β-galactosidase enzyme expression determined by chemiluminescence per manufacturers instructions (Tropix Gal-screen™, Tropix, Bedford, Mass.). Compound toxicity was monitored on sister plates using MTS dye reduction.
# [3] = test system: PBMCs; experiment: Cell cycle analysis of PBMCs by flow cytometry; assay type: cell-based, Human
# Protocol: Flow cytometry studies were carried out on PHA/IL-2 induced PBMCs treated for 6 days with the various test compounds. Prior to flow cytometry the PBMCs were washed, counted and 1×10^6 cells resuspended in PBS and stained for CD4 or CD8 surface markers using anti-CD4.PE or CD8.PE (both from PharMingen) for 30 min at 4° C. The PBMC were then washed, fixed (Cytofix) and permeabilized (Cytoperm) followed by staining for apoptosis-related DNA damage. Initial experiments used the BrdU Flow Kit from PharMigen (2354KK). This kit with the appropriate software should have yielded percent apoptosis along with the number of cells in each phase of the cell cycle. However, we were not successful with this kit and subsequently used the data to look at only the distribution in the cell cycle of the PBMCs following drug treatment. We were successful in detecting apoptosis in PBMCs with the PharMingen APO-BRDU™ kit (6576KK). Using this kit, we were not able to co-stain for CD4 and CD8 due to the fluorescent tags used in the APO-BRDU™ kit. For both kits, manufacturers instructions were followed for staining and analysis of the samples. Following the appropriate staining protocol the cells were analyzed using a Becton Dickinson (Bedford, Mass.) FACSSort
# Experiments were conducted using flow cytometry to assess the effect of the IMG compounds and cannabidiol on induction of apoptosis. Briefly, compound-treated PBMCs were assayed for apoptosis using a BrdU methodology. Table 6 summarizes the effects of the IMG Compounds on cell cycle and cell viability by Trypan Blue Dye exclusion. Table 7 reduces the changes in the cell cycle to a ratio based upon the percent of cells in G2-G1. G2-G1 cells represent transition cells that are in either G2 or G1, that cannot be distinguished based upon DNA content by flow cytometry. […] This ratio cannot be used as a quantitative factor to measure fold-increases or decreases between population, but rather to access trends in the cell cycle.
# [4] = test system: PBMCs; experiment: PBMC apoptosis by flow cytometry (APO-BRDU kit); assay type: cell-based, Human; settings: IL-2 supplemented media
# Protocol: Flow cytometry studies were carried out on PHA/IL-2 induced PBMCs treated for 6 days with the various test compounds. Prior to flow cytometry the PBMCs were washed, counted and 1×10^6 cells resuspended in PBS and stained for CD4 or CD8 surface markers using anti-CD4.PE or CD8.PE (both from PharMingen) for 30 min at 4° C. The PBMC were then washed, fixed (Cytofix) and permeabilized (Cytoperm) followed by staining for apoptosis-related DNA damage. Initial experiments used the BrdU Flow Kit from PharMigen (2354KK). […] For both kits, manufacturers instructions were followed for staining and analysis of the samples. Following the appropriate staining protocol the cells were analyzed using a Becton Dickinson (Bedford, Mass.) FACSSort
# In another series of experiments, the IG compounds and cannabidiol treated cells were assessed for the induction of apoptosis (see Tables 8 and 9). […] As IL-2 is an essential component for maintaining the health of PHA induced PBMCs, a second focus of these studies focuses on the effect of the compounds in the absence of IL-2.
smiles,measurement,setting,value
"C=C(C)[C@@H]1CCC(C)=C[C@H]1c1c(O)cc(CCCCC)cc1O [Cannabidiol, reference compound]",β-galactosidase production versus background,[1],suppressed β-galactosidase production below background
same,Comments: suppression of β-galactosidase activity,[2],Suppression of β-galactosidase
same,% 7-AAD positive per cell cycle phase G0-G1,"[3]; 1 μM, HIV +",94%
same,% 7-AAD positive per cell cycle phase G2-G1,"[3]; 1 μM, HIV +",2%
same,% 7-AAD positive per cell cycle phase G2-M,"[3]; 1 μM, HIV +",5.7%
same,% of cells in cell cycle phase,"[3]; 1 μM, HIV +",0%
same,% 7-AAD positive per cell cycle phase G0-G1,"[3]; 1 μM, HIV −",91%
same,% 7-AAD positive per cell cycle phase G2-G1,"[3]; 1 μM, HIV −",2%
same,% 7-AAD positive per cell cycle phase G2-M,"[3]; 1 μM, HIV −",9.2%
same,% of cells in cell cycle phase,"[3]; 1 μM, HIV −",0%
same,% 7-AAD positive per cell cycle phase G0-G1,"[3]; 25 μM, HIV +",96%
same,% 7-AAD positive per cell cycle phase G2-G1,"[3]; 25 μM, HIV +",2%
same,% 7-AAD positive per cell cycle phase G2-M,"[3]; 25 μM, HIV +",0%
same,% of cells in cell cycle phase,"[3]; 25 μM, HIV +",4.2%
same,% 7-AAD positive per cell cycle phase G0-G1,"[3]; 25 μM, HIV −",96.4%
same,% 7-AAD positive per cell cycle phase G2-G1,"[3]; 25 μM, HIV −",2%
same,% 7-AAD positive per cell cycle phase G2-M,"[3]; 25 μM, HIV −",0.05%
same,% of cells in cell cycle phase,"[3]; 25 μM, HIV −",3.6%
same,% 7-AAD positive per cell cycle phase G0-G1,"[3]; 35 μM, HIV +",98%
same,% 7-AAD positive per cell cycle phase G2-G1,"[3]; 35 μM, HIV +",2%
same,% 7-AAD positive per cell cycle phase G2-M,"[3]; 35 μM, HIV +",0%
same,% of cells in cell cycle phase,"[3]; 35 μM, HIV +",2.6%
same,% 7-AAD positive per cell cycle phase G0-G1,"[3]; 35 μM, HIV −",95.5%
same,% 7-AAD positive per cell cycle phase G2-G1,"[3]; 35 μM, HIV −",2%
same,% 7-AAD positive per cell cycle phase G2-M,"[3]; 35 μM, HIV −",0%
same,% of cells in cell cycle phase,"[3]; 35 μM, HIV −",4.5%
same,% Apoptosis,"[4]; 15 μM, HIV +",20.0%
same,Fold Change,"[4]; 15 μM, HIV +",1.2
same,% Apoptosis,"[4]; 15 μM, HIV −",20.5%
same,Fold Change,"[4]; 15 μM, HIV −",1.7
same,% Apoptosis,"[4]; 30 μM, HIV +",74%
same,Fold Change,"[4]; 30 μM, HIV +",4.6
same,% Apoptosis,"[4]; 30 μM, HIV −",22%
same,Fold Change,"[4]; 30 μM, HIV −",1.8
